Measurements as given in patent US11413286B2, “Producing astrocytes using small molecules” (CITY OF HOPE, priority 2016, dated 2022).

Tests used:
reprogramming efficiency = test: Enhancement of reprogramming efficiency by OAC compounds; format: cell-based
Oct4-luc = Oct4-luc reporter induction by OAC compounds; format: cell-based; set-up: key to Oct4-luc Activity: Active: Compounds that induce Oct4-luc 1.8-fold or more were classified as being “active”; Inactive: molecules that induce Oct4-luc less than 1.8-fold were indicated as being “inactive”

| SMILES | Enhance reprogramming efficiency (reprogramming efficiency) | Oct4-luc Activity (Oct4-luc) | Oct4-luc fold Induction (Oct4-luc) |
| --- | --- | --- | --- |
| O=C(Nc1cc2cc[nH]c2cn1)c1ccccc1 [Compound C1] | YES | Active | 4.72 fold |
| O=C(Nc1ccc2[nH]ccc2c1)c1ccccc1 [Compound C2] | YES | Active | 4.15 fold |
| O=C(Nc1ccc2[nH]ccc2c1)c1ccc(F)cc1 [Compound C3] | YES | Active | 3.84 fold |
| COc1ccc(C(=O)Nc2ccc3[nH]ccc3c2)cc1 [Compound C4] | – | Active | 5.46 fold |
| O=C(Nc1ccc2[nH]ccc2c1)c1ccc2nonc2c1 [Compound C5] | – | Active | 2.87 fold |
| COc1ccc(C(=O)Nc2ccc3[nH]ncc3c2)cc1 [Compound C6] | – | Active | 3.18 fold |
| O=C(Nc1ccc2[nH]ncc2c1)c1ccc(F)cc1 [Compound C7] | – | Active | 2.2 fold |
| O=C(Nc1ccc2[nH]ncc2c1)c1ccccc1 [Compound C8] | – | Active | 1.89 fold |
| CCOc1ccc(C(=O)Nc2ccc3[nH]ncc3c2)cc1 [Compound C9] | – | Active | 7.22 fold |
| CCc1ccc(C(=O)Nc2ccc3[nH]ncc3c2)cc1 [Compound C10] | – | Active | 4.51 fold |
| CC(C)c1ccc(C(=O)Nc2ccc3[nH]ncc3c2)cc1 [Compound C11] | – | Active | 3.78 fold |
| O=C(Nc1ccc2[nH]ncc2c1)c1ccc(Cl)cc1Cl [Compound C12] | – | Active | 3.6 fold |
| Cc1ccc(C(=O)Nc2ccc3[nH]ncc3c2)cc1C [Compound C13] | – | Active | 2.78 fold |
| CCOc1cccc(C(=O)Nc2ccc3[nH]ncc3c2)c1 [Compound C14] | – | Active | 2.67 fold |
| COc1cccc(C(=O)Nc2ccc3[nH]ncc3c2)c1 [Compound C15] | – | Active | 1.93 fold |
| CN1CCC(c2c[nH]c3ccc(NC(=O)c4ccc(F)cc4)cc23)CC1 [Compound C16] | – | Inactive | 1 fold |

| SMILES | Enhance reprogramming efficiency (reprogramming efficiency) | Oct4-luc Activity (Oct4-luc) | Oct4-luc fold Induction (Oct4-luc) |
| --- | --- | --- | --- |
| Cc1ccc(C(=O)Nc2ccc3[nH]cc(C#N)c3c2)cc1 [Compound C17] | – | Inactive | 1.1 fold |
| O=C(Nc1ccc2[nH]ncc2c1)c1cccc(F)c1 [Compound C18] | – | Inactive | 1.27 fold |
| O=C(Nc1ccc2[nH]ncc2c1)c1cccc(Cl)c1 [Compound C19] | – | Inactive | 1.65 fold |
| O=C(Nc1ccc2[nH]ncc2c1)c1cccc(Br)c1 [Compound C20] | – | Inactive | 1.48 fold |
| O=C(Nc1ccc2[nH]ncc2c1)c1cccc(C(F)(F)F)c1 [Compound C21] | – | Inactive | 1.48 fold |
| O=C(Nc1ccc2[nH]ncc2c1)c1ccccc1F [Compound C22] | – | Inactive | 1.5 fold |
| O=C(Nc1ccc2[nH]ncc2c1)c1ccccc1Cl [Compound C23] | – | Inactive | 1.72 fold |
| O=C(Nc1ccc2[nH]ncc2c1)c1ccccc1Br [Compound C24] | – | Inactive | 1.46 fold |
| COc1ccccc1C(=O)Nc1ccc2[nH]ncc2c1 [Compound C25] | – | Inactive | 1.5 fold |
| CCOc1ccccc1C(=O)Nc1ccc2[nH]ncc2c1 [Compound C26] | – | Inactive | 1.22 fold |
| COc1cccc(C(=O)Nc2ccc3[nH]ncc3c2)c1OC [Compound C27] | – | Inactive | 1.37 fold |
| COc1ccc(C(=O)Nc2ccc3[nH]ncc3c2)c(OC)c1 [Compound C28] | – | Inactive | 1.42 fold |
| COc1ccc(C(=O)Nc2ccc3[nH]ncc3c2)cc1OC [Compound C29] | – | Inactive | 1.13 fold |
| CCOc1ccc(C(=O)Nc2ccc3[nH]ncc3c2)cc1OCC [Compound C30] | – | Inactive | 1 fold |
| O=C(Nc1ccc2[nH]nnc2c1)c1cccc(Cl)c1 [Compound C31] | – | Inactive | 1 fold |
| Cc1nc2cc(NC(=O)c3ccc([N+](=O)[O-])cc3)ccc2[nH]1 [Compound C32] | – | Inactive | 1.3 fold |
